“Also recorded” adds a separate entry of the source.
Key:
[1] = test system: native HIV envelope protein gp160; conditions: disulfide (di-Cys) polymeric form
Text: FIG. 6 contains two panels of graphs that illustrate B6C3 F1 mouse PLN cell proliferation by ^3H-TdR incorporation as described before using varying concentrations of peptide multimer and gp120 as antigens. […] PPD and unrelated peptide were used as controls. A further discussion relating to FIGS. 6-8 is found hereinafter.
The cells were harvested onto filter strips and ^3H-TdR incorporation was monitored.
T cell proliferation measured by ^3H-TdR incorporation, was also similarly assayed as a function of the T cell antigen concentration, using various amounts of native gp120 or gp160 as one control, and PPD as another control. PLN from B6C3 F1 mice were used in these studies.

BALB/c mice = assay: ELISA for anti-peptide antibody response in sera of immunized BALB/c mice; format: in vivo; conditions: high molecular weight (multimer) forms

## FLGFLGAAGSTMGAASLTLTVQANQ [Peptide 63, gp160 conserved region 5, residues 519-543; di-Cys polymeric form]
[1]
  T cell response directed against the corresponding peptide and native HIV envelope protein gp160: strong T cell response
BALB/c mice
  anti-peptide antibody response (in words): very low to negligible amounts of anti-peptide antibodies; also recorded: do not stimulate anti-peptide antibody production

## GTGPCTNVSTVQC [Peptide 116, gp160 CR-2, residues 240-252]
BALB/c mice
  anti-peptide antibody response (in words): very low to negligible amounts of anti-peptide antibodies

## LWDQSLKPCVKLT [Peptide 111, gp160 CR-1, residues 118-131]
BALB/c mice
  anti-peptide antibody response (in words): very low to negligible amounts of anti-peptide antibodies

## SVITQACSKVSFE [Peptide 113, gp160 CR-2, residues 204-216]
[1]
  T cell response directed against the corresponding peptide and native HIV envelope protein gp160: strong T cell response
BALB/c mice
  anti-peptide antibody response (in words): very low to negligible amounts of anti-peptide antibodies; also recorded: do not stimulate anti-peptide antibody production

## VYYGVPVWKEA [Peptide 104, gp160 CR-1, residues 45-55]
[1]
  T cell response directed against the corresponding peptide and native HIV envelope protein gp160: strong T cell response
BALB/c mice
  anti-peptide antibody response (in words): very low to negligible amounts of anti-peptide antibodies; also recorded: do not stimulate anti-peptide antibody production

## YLRDQQLLGIWGC [Peptide 61, gp160 conserved region 5, residues 586-598; number denotes the di-Cys polymeric form]
[1]
  T cell response directed against the corresponding peptide and native HIV envelope protein gp160: strong T cell response
BALB/c mice
  anti-peptide antibody response (in words): very low to negligible amounts of anti-peptide antibodies; also recorded: do not stimulate anti-peptide antibody production

Source: patent publication US20020151678A1, “Prophylaxis and therapy of acquired immunodeficiency syndrome” (Board of Regents, The University of Texas System., priority 1987, published 2002)
